Reference: patent publication US20240067632A1, “WEE1 Degrading Compounds and Uses Thereof” (Bristol-Myers Squibb Company, priority 2022, published 2024)
Where two headings read alike, the source gives them in different places.

Key:
WEE1 = target: T1, WEE1 (Homo sapiens, UniProt P30291+Q96SW2); experiment: WEE1-ePL degradation assay (LentiX-WEE1-ePL-GSPT1-ND cells, InCELL Hunter luminescence, 4 h); type: cell-based; details: 293T-LentiX WEE1-ePL cells; for DC50: read-out: 293T-LentiX WEE1-ePL Degradation 4 hr (EC50)
T1 construct: C-terminal ePL-tagged (DiscoverX, Fremont, CA) full-length WEE1 expression construct; expressed in transfected cells; host or cells: LentiX-HEK293T (Invitrogen), lentiviral transduction; co-expressing GSPT1-GN (G576N, lacking the first 158 amino acids)
Summary of the method: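 Degradation EC50 was fitted by a four-parameter logistic model, with the upper limit taken from DMSO wells. Luminescence was read with InCELL Hunter reagent after 30 min at room temperature, following a 4 h, 37° C exposure of 2500 cells/well. Cells were LentiX-HEK293T carrying ePL-tagged full-length WEE1, dosed in 10 points (3-fold) from 1 or 10 uM.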

MKN45 cells = experiment: MKN45 cell proliferation assay (Cell-Titer-Glo, 120 h); type: cell-based; details: for EC50: Homo sapiens, MKN-45, 120 h, Cell-Titer-Glo, read-out: MKN45 Cell Prolif. 120 hr (EC50); for MKN45 Cell Prolif. 120 hr (Ymin-Obs): minimal percent of DMSO control observed in the concentrations tested
Summary of the method: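 Growth inhibition was read as blank-corrected Cell-Titer-Glo luminescence expressed as percent DMSO control after 120 h at 37 C, 400 cells/well. Compounds tested in triplicate as 10-point half-log series from 1 or 10 uM, 0.1% DMSO; four-parameter fit gave EC50, and lowest observed percent control was reported as Ymin-obs.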

[1] = lower limit of the fit (0 = luciferase inhibitor, Ymax = DMSO control)
[2] = lower limit of the fit (Ymin=0 luciferase inhibitor, Ymax DMSO control)

SMILES	293T-LentiX WEE1-ePL Degradation 4 hr (Ymin) (WEE1; [1])	DC50 (WEE1)	EC50 (MKN45 cells; growth inhibition)	MKN45 Cell Prolif. 120 hr (Ymin-Obs) (MKN45 cells)	293T-LentiX WEE1-ePL Degradation 4 hr (Ymin) (WEE1; [2])	EC50 (MKN45 cells)
O=C1CCC(N2Cc3cc(O[C@H]4CCN(Cc5ccc6nc([C@@H]7CCCOC7)ncc6c5)C4)ccc3C2=O)C(=O)N1 (stereo partly drawn) [3-(5-{[(3S)-1-({2-[(3S)-oxan-3-yl]quinazolin-6-yl}methyl)pyrrolidin-3-yl]oxy}-1-oxo-2,3-dihydro-1H-isoindol-2-yl)piperidine-2,6-dione]	31	33.8 nM	19.4 nM	5.31		
O=C1CC[C@H](N2Cc3cc(O[C@H]4CCN(Cc5cc(C6COC6)c6nc(C7CCOCC7)ccc6c5)C4)ccc3C2=O)C(=O)N1 [(3S)-3-(5-{[(3S)-1-{[2-(oxan-4-yl)-8-(oxetan-3-yl)quinolin-6-yl]methyl}pyrrolidin-3-yl]oxy}-1-oxo-2,3-dihydro-1H-isoindol-2-yl)piperidine-2,6-dione]				96.91	88.43	2.94 nM
Cc1cnc2ccc(CN3CC[C@H](Oc4ccc5c(c4)CN(C4CCC(=O)NC4=O)C5=O)C3)c(C)c2c1 (stereo partly drawn) [3-(5-{[(3S)-1-[(3,5-dimethylquinolin-6-yl)methyl]pyrrolidin-3-yl]oxy}-1-oxo-2,3-dihydro-1H-isoindol-2-yl)piperidine-2,6-dione]	39.05	7.92 nM	93.8 nM	53.11		
O=C1CCC(N2Cc3cc(O[C@H]4CCN(Cc5ccc6nc(COC7COC7)ccc6c5)C4)ccc3C2=O)C(=O)N1 (stereo partly drawn) [3-(5-{[(3S)-1-({2-[(oxetan-3-yloxy)methyl]quinolin-6-yl}methyl)pyrrolidin-3-yl]oxy}-1-oxo-2,3-dihydro-1H-isoindol-2-yl)piperidine-2,6-dione]	23.84	122 nM	5.37 nM	9.252		
C[C@@H]1CN(Cc2ccc3nc(C4CCOCC4)ccc3c2)C[C@H]1Oc1ccc2c(c1)CN(C1CCC(=O)NC1=O)C2=O (stereo partly drawn) [3-(5-{[(3S,4R)-4-methyl-1-{[2-(oxan-4-yl)quinolin-6-yl]methyl}pyrrolidin-3-yl]oxy}-1-oxo-2,3-dihydro-1H-isoindol-2-yl)piperidine-2,6-dione]	27.68	2.71 nM	3.52 nM	9.683		
COC[C@@H]1CN(Cc2ccc3nc([C@@H]4CCOC(C)(C)C4)ccc3c2)C[C@H]1Oc1ccc2c(c1)CN([C@H]1CCC(=O)NC1=O)C2=O [(3S)-3-(5-{[(3S,4S)-1-({2-[(4R)-2,2-dimethyloxan-4-yl]quinolin-6-yl}methyl)-4-(methoxymethyl)pyrrolidin-3-yl]oxy}-1-oxo-2,3-dihydro-1H-isoindol-2-yl)piperidine-2,6-dione]		0.726 nM		7.692	25.48	0.247 nM
N#Cc1ccc2cc(CN3CC[C@H](Oc4cc(F)c5c(c4)CN(C4CCC(=O)NC4=O)C5=O)C3)ccc2n1 (stereo partly drawn) [6-{[(3S)-3-{[2-(2,6-dioxopiperidin-3-yl)-7-fluoro-1-oxo-2,3-dihydro-1H-isoindol-5-yl]oxy}pyrrolidin-1-yl]methyl}quinoline-2-carbonitrile]	100.5		> 10000 nM	84.865		
Cc1cc(CN2CC[C@H](Oc3ccc4c(c3)CN(C3CCC(=O)NC3=O)C4=O)C2)cnc1C (stereo partly drawn) [3-(5-{[(3S)-1-[(5,6-dimethylpyridin-3-yl)methyl]pyrrolidin-3-yl]oxy}-1-oxo-2,3-dihydro-1H-isoindol-2-yl)piperidine-2,6-dione]	35.675	25.9 nM	955 nM	43.03		
O=C1CCC(N2Cc3cc(O[C@H]4CCN(Cc5ccnc6ccccc56)C4)ccc3C2=O)C(=O)N1 (stereo partly drawn) [3-(1-oxo-5-{[(3S)-1-[(quinolin-4-yl)methyl]pyrrolidin-3-yl]oxy}-2,3-dihydro-1H-isoindol-2-yl)piperidine-2,6-dione]	33.025	23.4 nM	56.8 nM	13.21		
CN1CCN(c2ccc3cc(CN4CC[C@H](Oc5ccc6c(c5)CN(C5CCC(=O)NC5=O)C6=O)C4)ccc3n2)CC1 (stereo partly drawn) [3-(5-{[(3S)-1-{[2-(4-methylpiperazin-1-yl)quinolin-6-yl]methyl}pyrrolidin-3-yl]oxy}-1-oxo-2,3-dihydro-1H-isoindol-2-yl)piperidine-2,6-dione]	33.5	6.77 nM	20 nM	13.365		
Cc1cc(CN2CC[C@H](Oc3ccc4c(c3)CN(C3CCC(=O)NC3=O)C4=O)C2)ccn1 (stereo partly drawn) [3-(5-{[(3S)-1-[(2-methylpyridin-4-yl)methyl]pyrrolidin-3-yl]oxy}-1-oxo-2,3-dihydro-1H-isoindol-2-yl)piperidine-2,6-dione]	39.18	39.5 nM	663 nM	37.845		
Cc1cc(O)c2cc(CN3CC[C@H](Oc4ccc5c(c4)CN(C4CCC(=O)NC4=O)C5=O)C3)ccc2n1 (stereo partly drawn) [3-(5-{[(3S)-1-[(4-hydroxy-2-methylquinolin-6-yl)methyl]pyrrolidin-3-yl]oxy}-1-oxo-2,3-dihydro-1H-isoindol-2-yl)piperidine-2,6-dione]	73	528 nM	> 10000 nM	87.83		
CO[C@H]1CC[C@@H](c2ccc3cc(CN4CC[C@H](Oc5ccc6c(c5)CN(C5CCC(=O)NC5=O)C6=O)C4)ccc3n2)CC1 (stereo partly drawn) [3-(1-oxo-5-{[(3S)-1-({2-[(1s,4s)-4-methoxycyclohexyl]quinolin-6-yl}methyl)pyrrolidin-3-yl]oxy}-2,3-dihydro-1H-isoindol-2-yl)piperidine-2,6-dione]	30	1.12 nM	1.14 nM	9.583		
O=C1CCC(N2Cc3cc(O[C@H]4CCN(Cc5ccc6nc(NC(=O)C7CCOCC7)ccc6c5)C4)ccc3C2=O)C(=O)N1 (stereo partly drawn) [N-(6-{[(3S)-3-{[2-(2,6-dioxopiperidin-3-yl)-1-oxo-2,3-dihydro-1H-isoindol-5-yl]oxy}pyrrolidin-1-yl]methyl}quinolin-2-yl)oxane-4-carboxamide]	29	1.78 nM	2.03 nM	5.73		
O=C1CCC(N2Cc3cc(O[C@H]4CCN(Cc5ccc6nc(N7CCS(=O)(=O)CC7)ncc6c5)C4)ccc3C2=O)C(=O)N1 (stereo partly drawn) [4-(6-{[(3S)-3-{[2-(2,6-dioxopiperidin-3-yl)-1-oxo-2,3-dihydro-1H-isoindol-5-yl]oxy}pyrrolidin-1-yl]methyl}quinazolin-2-yl)-1λ^6-thiomorpholine-1,1-dione]	42	23.6 nM	51 nM	17.09		
Cc1cc(C#N)c2cc(CN3CC[C@H](Oc4ccc5c(c4)CN(C4CCC(=O)NC4=O)C5=O)C3)ccc2n1 (stereo partly drawn) [6-{[(3S)-3-{[2-(2,6-dioxopiperidin-3-yl)-1-oxo-2,3-dihydro-1H-isoindol-5-yl]oxy}pyrrolidin-1-yl]methyl}-2-methylquinoline-4-carbonitrile]	66.8	20.7 nM	> 10000 nM	86.89		
